Patent US20080138463A1, “Lactobacillus buchneri strain LN5689 and its use to improve aerobic stability of silage” (Pioneer Hi-Bred International, Inc., priority 2006, published 2008)

Experiments:
[1] = Aerobic stability of grass silage (method of Honig); design: species or system ryegrass
Method: Second cut ryegrass was harvested at PLNC. The grass was determined to have an approximate dry matter of 35%.
Inoculation: Individual strains were supplied as fresh grown overnight culture. Cultures were adjusted to a standard concentration of 5.0×10^7 CFU/mL and applied using a syringe at a rate of 2.2 mL/kg of forage. The application rate for all strains was 1.1×10^5 CFU/g forage. Propionic acid (88%) was applied at a rate of 4.4 mL/kg fresh forage.
PVC Silos: PVC silos were filled at a packing density of 0.288 kg DM/silo (100 kg DM/m^3); approximately 0.82-0.95 kg/silo. Silos were air infused for 24 hours on days 28 and 42, and opened after 50-60 days of ensiling.
Aerobic Stability: The method of Honig (Proc. Of the Eurobac. Conf., P. Lingvall and S. Lindgren (ed.) (12-16 Aug. 1986) Swed. Univ. of Agric. Sci. Grass and Forage Report No. 3-1990. Pp. 76-81. Uppsala, Sweden.) was used for measuring aerobic stability (see Table 1). ROT is defined as the time, in hours, for the silage to heat 1.7° C. after exposure to air. Cumm_DD is the integral value of the area between the time ROT is attained and the end of the experiment. Aerobic dry matter loss (% dry matter) was determined relating the increase in temperature and the time to energy losses occurring in the silage.

[2] = pH of grass silage after ensiling; assay type: physicochemical, ryegrass; settings: for pH: PVC silos
Method: Second cut ryegrass was harvested at PLNC. The grass was determined to have an approximate dry matter of 35%. Inoculation: Individual strains were supplied as fresh grown overnight culture. Cultures were adjusted to a standard concentration of 5.0×10^7 CFU/mL and applied using a syringe at a rate of 2.2 mL/kg of forage. The application rate for all strains was 1.1×10^5 CFU/g forage. Propionic acid (88%) was applied at a rate of 4.4 mL/kg fresh forage. PVC Silos: PVC silos were filled at a packing density of 0.288 kg DM/silo (100 kg DM/m^3); approximately 0.82-0.95 kg/silo. Silos were air infused for 24 hours on days 28 and 42, and opened after 50-60 days of ensiling.

[3] = average across replicate studies A, B, C

CCC(=O)O [Propionic Acid, Propionic acid]
Aerobic deterioration compared with control grass silages [1]: significantly less aerobic deterioration than the control
Improvement of aerobic stability over the control ([1]; LN5689 1.1×10^5 CFU/g forage, propionic acid (88%) 4.4 mL/kg): 96 h
Aerobic Dry Matter Loss Avg. [1, 3]: 0.43 % dry matter
ROT Avg. [1, 3]: 127 h
Aerobic Dry Matter Loss ([1]; replicate study A): 0.29 % dry matter
ROT (time for the silage to heat 1.7° C. after exposure to air) ([1]; replicate study A): 137 h
Aerobic Dry Matter Loss ([1]; replicate study B): 0 % dry matter
ROT (time for the silage to heat 1.7° C. after exposure to air) ([1]; replicate study B): 160 h
Aerobic Dry Matter Loss ([1]; replicate study C): 1.01 % dry matter
ROT (time for the silage to heat 1.7° C. after exposure to air) ([1]; replicate study C): 86 h
pH ([2]; replicate study A): 4.03
pH ([2]; replicate study B): 4.17
pH ([2]; replicate study C): 4.18
pH Avg. [2, 3]: 4.13
